Source: patent publication US20230181519A1, “Compositions And Methods For Treating Nicotine-Related Disorders And Symptoms Using Dihydromyricetin” (priority 2021, published 2023)
“Also recorded” adds a separate entry of the source.

Legend:
α4β2-nAChRs = target: T1, α4β2-nAChRs (Homo sapiens, UniProt P17787+P43681); test: ACh-induced whole-cell currents of transfected α4β2-nAChRs in SH-EP1 cells; type: cell-based; conditions: DHM co-applied at different concentrations, SH-EP1 cells (FIG. 1)
T1 construct: expressed in transfected cells; host or cells: human SH-EP1 cells
T1 sequence (P43681 29-627 limits assumed): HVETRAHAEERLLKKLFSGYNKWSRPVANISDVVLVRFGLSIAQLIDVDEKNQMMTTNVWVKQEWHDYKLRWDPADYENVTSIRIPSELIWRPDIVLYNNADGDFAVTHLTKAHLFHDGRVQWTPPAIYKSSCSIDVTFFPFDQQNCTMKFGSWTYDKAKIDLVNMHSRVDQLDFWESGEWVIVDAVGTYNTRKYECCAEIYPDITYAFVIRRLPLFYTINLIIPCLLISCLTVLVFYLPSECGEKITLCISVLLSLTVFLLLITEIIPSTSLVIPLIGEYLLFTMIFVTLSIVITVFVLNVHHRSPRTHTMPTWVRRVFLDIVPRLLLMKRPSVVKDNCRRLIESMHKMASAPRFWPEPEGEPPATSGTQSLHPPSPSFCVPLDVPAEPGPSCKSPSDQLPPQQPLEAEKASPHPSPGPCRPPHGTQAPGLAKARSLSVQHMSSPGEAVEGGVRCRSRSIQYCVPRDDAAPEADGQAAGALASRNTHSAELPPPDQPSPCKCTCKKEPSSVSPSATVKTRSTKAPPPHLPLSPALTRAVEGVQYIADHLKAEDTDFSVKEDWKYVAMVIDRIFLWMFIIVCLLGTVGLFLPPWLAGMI
T1 sequence (P17787 26-502): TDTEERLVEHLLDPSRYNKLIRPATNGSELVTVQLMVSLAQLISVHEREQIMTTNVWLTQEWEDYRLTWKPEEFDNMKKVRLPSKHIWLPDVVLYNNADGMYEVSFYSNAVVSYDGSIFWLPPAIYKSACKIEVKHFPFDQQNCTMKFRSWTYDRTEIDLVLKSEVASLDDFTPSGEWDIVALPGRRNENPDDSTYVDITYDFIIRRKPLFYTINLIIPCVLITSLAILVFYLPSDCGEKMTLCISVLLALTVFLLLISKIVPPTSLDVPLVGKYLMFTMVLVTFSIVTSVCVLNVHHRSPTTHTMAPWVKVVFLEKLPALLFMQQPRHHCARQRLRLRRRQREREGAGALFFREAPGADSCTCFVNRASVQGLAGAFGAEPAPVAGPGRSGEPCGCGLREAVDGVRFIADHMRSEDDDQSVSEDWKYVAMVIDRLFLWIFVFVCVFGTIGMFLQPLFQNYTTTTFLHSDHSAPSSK
Protocol: In this example, the effects of DHM on transfected α4β2-nAChRs in human SH-EP1 cells (a model system to study human acetylcholine (“ACh”) receptors) were measured. Traces of ACh-induced whole-cell currents co-applied with different concentrations of DHM were created and examined.

VTA DA neurons [1] = test: VTA dopamine neuronal firing in VTA slices (cell-attached recording); type: cell-based, mouse
Protocol: In this example, the effects of DHM on mouse ventral tegmental area (“VTA”) dopamine (“DPA”) neuronal firing in slices were measured.

VTA DA neurons [2] = test: VTA DA neuronal firing in anesthetized mice (in vivo recording); conditions: i.v.
Source text: Part C is after in vivo recording. The recording site was dyed using blue-sky dye, and confirmed by cutting brain sections that contained VTA.

[3] = test system: NIC-induced conditioned-place preference; test: NIC-induced conditioned-place preference (CPP); type: in vivo
Protocol: In this example, the effects of DHM on NIC-induced conditioned-place preference (“CCP”) were measured.
Part A is the CPP performance protocol.

C57BL/J mice = test: NIC-induced behavioral sensitization (local motor activity); type: in vivo
Protocol: In this example, the effects of DHM on NIC-induced behavioral sensitization in mice were measured.
C57BL/J mice were repetitively treated with NIC (0.5 mg/kg, i.p.), and the local motor activities were measured.

[4] = NIC 0.5 mg/kg, anesthetized mice (FIG. 3 B)
[5] = NIC 0.5 mg/kg, i.p., repetitive, C57BL/J mice (FIG. 6)

SMILES | a4b2-nAChR-mediated whole-cell currents (α4β2-nAChRs) | NIC-induced enhancement of AP firing rate, effect of DHM (VTA DA neurons [1]; VTA slices (FIG. 2 C, D)) | DA neuron firing rate, effect of DHM itself (VTA DA neurons [1]; VTA slices, different concentrations of DHM (FIG. 2 D)) | DA neuronal firing rate, effect of DHM (VTA DA neurons [2]; DHM 1 and 10 mg/kg, anesthetized mice (FIG. 4)) | NIC-induced AP firing increase, effect of DHM (VTA DA neurons [2]; DHM 1 and 10 mg/kg, anesthetized mice (FIG. 4 D)) | NIC-induced CPP, overall ([3]; FIG. 5) | NIC-induced CPP after withdrawal 5 days of NIC (day 19) ([3]; FIG. 5 B, C) | NIC-induced CPP at test day (day 13) ([3]; FIG. 5 C) | NIC-induced behavioral sensitization (local motor activity), effect of DHM (C57BL/J mice; NIC group vs NIC+DHM group (FIG. 7)) | AP firing rate of DA neurons, effect of bath-applied nicotine (VTA DA neurons [1]; VTA slices, cell-attached recording (FIG. 2 A, B)) | DA neuronal firing, time-frequency relationship after NIC (VTA DA neurons [2]; NIC 0.5 mg/kg, anesthetized mice (FIG. 3 A)) | AP firing rate after systemic injection of NIC (VTA DA neurons [2]; [4]) | bursting firing after systemic injection of NIC (VTA DA neurons [2]; [4]) | slow oscillations (SO) after systemic injection of NIC (VTA DA neurons [2]; [4]) | motor activity (total move distance) with repetitive injections of NIC (C57BL/J mice; [5]) | motor activity after withdrawal at 5 and 10 days (C57BL/J mice; [5])
O=C1c2c(O)cc(O)cc2O[C@H](c2cc(O)c(O)c(O)c2)[C@H]1O [DHM, dihydromyricetin] | inhibited | abolished; also recorded: prevented | reduced DA firing | reduced | abolished | significantly reduces; also recorded: inhibits | abolished | abolished | significantly reduced; also recorded: inhibits |  |  |  |  |  |  | 
CN1CCCC1c1cccnc1 (stereo not shown) [NIC, nicotine] |  |  |  |  |  |  |  |  |  | enhancement of AP firing rate | an initial reduction following by a long-lasting increase | enhanced | enhanced | reduction | increased | still maintained at a high level
